Laboratory results from ChEMBL document CHEMBL1201862, “PubChem BioAssay data set” (2004).
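In this assay, cells in 96-well plates receive the compound at five concentrations for 48 hours. Endpoints are linearly interpolated between the surrounding concentrations. GI50: concentration for 50% inhibition of growth.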 The source made the active and inactive calls. Rule as the data show it: active = GI50 up to about 1.1 µM and inactive = higher.

Key:
Test in all cases: NCI-60 cell line screen, 48 h
COLO 205 = tested on: COLO 205
KM12 = tested on: KM12
SF-268 = tested on: SF-268
PC-3 = tested on: PC-3
SK-OV-3 = tested on: SK-OV-3
SF-539 = tested on: SF-539
UACC-257 = tested on: UACC-257
786-0 = tested on: 786-0
SW-620 = tested on: SW-620
A549 = tested on: A549
SK-MEL-2 = tested on: SK-MEL-2
U-251 = tested on: U-251
NCI/ADR-RES = tested on: NCI/ADR-RES
SNB-19 = tested on: SNB-19
RPMI-8226 = tested on: RPMI-8226
MDA-N = tested on: MDA-N
MCF7 = tested on: MCF7
UACC-62 = tested on: UACC-62
EKVX = tested on: EKVX
OVCAR-4 = tested on: OVCAR-4
HOP-92 = tested on: HOP-92
SK-MEL-28 = tested on: SK-MEL-28
MDA-MB-231 = tested on: MDA-MB-231
OVCAR-8 = tested on: OVCAR-8
SNB-75 = tested on: SNB-75
UO-31 = tested on: UO-31
SF-295 = tested on: SF-295
SK-MEL-5 = tested on: SK-MEL-5
Hs-578T = tested on: Hs-578T
K562 = tested on: K562
HCT-116 = tested on: HCT-116
A498 = tested on: A498
MDA-MB-435 = tested on: MDA-MB-435
T47D = tested on: T47D
M14 = tested on: M14
HCC 2998 = tested on: HCC 2998
NCI-H460 = tested on: NCI-H460
HT-29 = tested on: HT-29
NCI-H23 = tested on: NCI-H23
MOLT-4 = tested on: MOLT-4
CAKI-1 = tested on: CAKI-1
TK-10 = tested on: TK-10
DU-145 = tested on: DU-145
OVCAR-3 = tested on: OVCAR-3
OVCAR-5 = tested on: OVCAR-5
LOX IMVI = tested on: LOX IMVI
IGROV-1 = tested on: IGROV-1
HOP-62 = tested on: HOP-62
RXF 393 = tested on: RXF 393
Malme-3M = tested on: Malme-3M
NCI-H522 = tested on: NCI-H522
ACHN = tested on: ACHN
SN12C = tested on: SN12C
BT-549 = tested on: BT-549
HCT-15 = tested on: HCT-15
NCI-H226 = tested on: NCI-H226
CCRF-CEM = tested on: CCRF-CEM

SMILES: CC(/C=N\NC(=S)N(C)C)=N/NC(=S)N(C)C
- GI50 (COLO 205): 0.497 µM (active)
- GI50 (KM12): 1.78 µM (inactive)
- GI50 (SF-268): 0.251 µM (active)
- GI50 (PC-3): 0.577 µM (active)
- GI50 (SK-OV-3): 0.484 µM (active)
- GI50 (SF-539): 0.74 µM (active)
- GI50 (UACC-257): 2.61 µM (inactive)
- GI50 (786-0): 0.509 µM (active)
- GI50 (SW-620): 0.0832 µM (active)
- GI50 (A549): 0.142 µM (active)
- GI50 (SK-MEL-2): 0.303 µM (active)
- GI50 (U-251): 0.29 µM (active)
- GI50 (NCI/ADR-RES): 0.202 µM (active)
- GI50 (SNB-19): 0.721 µM (active)
- GI50 (RPMI-8226): 0.791 µM (active)
- GI50 (MDA-N): 8.93 µM (inactive)
- GI50 (MCF7): 0.759 µM (active)
- GI50 (UACC-62): 0.764 µM (active)
- GI50 (EKVX): 0.832 µM (active)
- GI50 (OVCAR-4): 5.16 µM (inactive)
- GI50 (HOP-92): 1.84 µM (inactive)
- GI50 (SK-MEL-28): 4.52 µM (inactive)
- GI50 (MDA-MB-231): 29 µM (inactive)
- GI50 (OVCAR-8): 0.308 µM (active)
- GI50 (SNB-75): 0.557 µM (active)
- GI50 (UO-31): 0.158 µM (active)
- GI50 (SF-295): 0.147 µM (active)
- GI50 (SK-MEL-5): 0.505 µM (active)
- GI50 (Hs-578T): 1.65 µM (inactive)
- GI50 (K562): 0.582 µM (active)
- GI50 (HCT-116): 0.117 µM (active)
- GI50 (A498): 2.88 µM (inactive)
- GI50 (MDA-MB-435): 0.881 µM (active)
- GI50 (T47D): 0.0935 µM (active)
- GI50 (M14): 0.393 µM (active)
- GI50 (HCC 2998): 2.49 µM (inactive)
- GI50 (NCI-H460): 0.0412 µM (active)
- GI50 (HT-29): 0.0995 µM (active)
- GI50 (NCI-H23): 1.12 µM (inactive)
- GI50 (MOLT-4): 0.0397 µM (active)
- GI50 (CAKI-1): 0.815 µM (active)
- GI50 (TK-10): 0.507 µM (active)
- GI50 (DU-145): 0.195 µM (active)
- GI50 (OVCAR-3): 0.317 µM (active)
- GI50 (OVCAR-5): 10.9 µM (inactive)
- GI50 (LOX IMVI): 0.273 µM (active)
- GI50 (IGROV-1): 0.575 µM (active)
- GI50 (HOP-62): 0.327 µM (active)
- GI50 (RXF 393): 0.586 µM (active)
- GI50 (Malme-3M): 0.995 µM (active)
- GI50 (NCI-H522): 0.243 µM (active)
- GI50 (ACHN): 0.113 µM (active)
- GI50 (SN12C): 0.951 µM (active)
- GI50 (BT-549): 1.93 µM (inactive)
- GI50 (HCT-15): 0.07 µM
- GI50 (NCI-H226): 0.843 µM (active)

SMILES: O=C(O)c1cc(NCc2cc(O)ccc2O)ccc1O [LAVENDUSTIN C]
- GI50 (COLO 205): > 100 µM (inactive)
- GI50 (KM12): > 100 µM (inactive)
- GI50 (SF-268): > 100 µM (inactive)
- GI50 (PC-3): > 100 µM (inactive)
- GI50 (SK-OV-3): > 100 µM (inactive)
- GI50 (SF-539): > 100 µM (inactive)
- GI50 (UACC-257): > 100 µM (inactive)
- GI50 (786-0): 45.3 µM (inactive)
- GI50 (SW-620): 23.8 µM (inactive)
- GI50 (A549): > 100 µM (inactive)
- GI50 (SK-MEL-2): > 100 µM (inactive)
- GI50 (U-251): > 100 µM (inactive)
- GI50 (NCI/ADR-RES): > 100 µM (inactive)
- GI50 (SNB-19): > 100 µM (inactive)
- GI50 (MDA-N): 24.8 µM (inactive)
- GI50 (MCF7): > 100 µM (inactive)
- GI50 (UACC-62): > 100 µM (inactive)
- GI50 (EKVX): > 100 µM (inactive)
- GI50 (OVCAR-4): > 100 µM (inactive)
- GI50 (HOP-92): > 100 µM (inactive)
- GI50 (SK-MEL-28): > 100 µM (inactive)
- GI50 (MDA-MB-231): > 100 µM (inactive)
- GI50 (SNB-75): > 100 µM (inactive)
- GI50 (UO-31): 67.1 µM (inactive)
- GI50 (SF-295): > 100 µM (inactive)
- GI50 (SK-MEL-5): > 100 µM (inactive)
- GI50 (Hs-578T): > 100 µM (inactive)
- GI50 (HCT-116): 49.9 µM (inactive)
- GI50 (A498): > 100 µM (inactive)
- GI50 (MDA-MB-435): 27 µM (inactive)
- GI50 (T47D): 35.6 µM (inactive)
- GI50 (HCC 2998): > 100 µM (inactive)
- GI50 (NCI-H460): > 100 µM (inactive)
- GI50 (HT-29): > 100 µM (inactive)
- GI50 (NCI-H23): > 100 µM (inactive)
- GI50 (CCRF-CEM): 10.6 µM (inactive)
- GI50 (CAKI-1): > 100 µM (inactive)
- GI50 (TK-10): > 100 µM (inactive)
- GI50 (DU-145): > 100 µM (inactive)
- GI50 (OVCAR-3): > 100 µM (inactive)
- GI50 (OVCAR-5): > 100 µM (inactive)
- GI50 (IGROV-1): > 100 µM (inactive)
- GI50 (HOP-62): > 100 µM (inactive)
- GI50 (RXF 393): > 100 µM (inactive)
- GI50 (NCI-H522): 16.2 µM (inactive)
- GI50 (ACHN): > 100 µM (inactive)
- GI50 (SN12C): > 100 µM (inactive)
- GI50 (BT-549): > 100 µM (inactive)
- GI50 (HCT-15): > 100 µM
- GI50 (NCI-H226): > 100 µM (inactive)
